Data: paper doi:10.1101/2023.01.11.523589v2 (biorxiv, 2023)

What was measured:
HiBIT-WDR5 [1] = biological target: T1, HiBIT-WDR5 (Homo sapiens, UniProt P61964); assay: cell-based; design: species or system HEK293T HiBIT-WDR5; details: HEK-293T, read-out: Dmax (23-24h) at 7.5 µM in %
HiBIT-WDR5 [2] = biological target: T1, HiBIT-WDR5; assay: cell-based; design: species or system HEK293T HiBIT-WDR5; details: HEK-293T, read-out: CETSA thermal shifts [°C]
[3] = biological target: HiBIT-WDR5 (HiBIT-tagged full length WDR5) (Homo sapiens, UniProt P61964); assay: in vitro NanoBRET tracer displacement; type: binding

| Dmax at 7.5 µM (HiBIT-WDR5 [1]) [%] | ΔTm at 10 µM (HiBIT-WDR5 [2]) [°C] | IC50 [3] [µM] | Compound |
| --- | --- | --- | --- |
| 69 ± 4 | 13.8 | – | Cc1ncsc1-c1ccc([C@H](C)NC(=O)[C@@H]2C[C@@H](O)CN2C(=O)[C@@H](NC(=O)CNC(=O)c2ccc(F)c(-c3ccc(N4C[C@@H](C)N(C)[C@@H](C)C4)c(NC(=O)c4c[nH]c(=O)cc4C(F)(F)F)c3)c2)C(C)(C)C)cc1 [MS67] |
| – | 2.6 | – | CC(=O)N[C@H](C(=O)N1C[C@H](O)C[C@H]1C(=O)NCc1ccc(-c2scnc2C)cc1)C(C)(C)C [VH032] |
| – | 11.6 | – | Cc1ncsc1-c1ccc([C@H](C)NC(=O)[C@H]2C[C@H](O)CN2C(=O)[C@@H](NC(=O)CNC(=O)c2ccc(F)c(-c3ccc(N4C[C@@H](C)N(C)[C@@H](C)C4)c(NC(=O)c4c[nH]c(=O)cc4C(F)(F)F)c3)c2)C(C)(C)C)cc1 [MS67N] |
| – | – | > 3 | CC(=O)N[C@H](C(=O)N1C[C@H](O)C[C@H]1C(=O)NCc1ccc(-c2scnc2C)cc1)C(C)(C)C [VH032, reference compound] |
